Data from the NIST ThermoML archive (doi:10.1021/je0496645).
Numbers after ± are expanded uncertainties.

Settings: 101.33 kPa, Liquid; for viscosity: Capillary tube (Ostwald / Ubbelohde) method; for mass density: Vibrating tube method

CCCCC(CC)COP(=O)(O)OCC(CC)CCCC (stereo not given) [bis(2-ethylhexyl) hydrogen phosphate]
viscosity (303.15 K): 21.22 ± 0.56 mPa·s
mass density (303.15 K): 964 ± 1.9 kg/m3
viscosity (313.15 K): 13.32 ± 0.41 mPa·s
mass density (313.15 K): 957 ± 1.9 kg/m3
viscosity (323.15 K): 8.559 ± 0.25 mPa·s
mass density (323.15 K): 949.5 ± 1.9 kg/m3
viscosity (333.15 K): 5.83 ± 0.16 mPa·s
mass density (333.15 K): 942 ± 1.9 kg/m3
viscosity (343.15 K): 4.089 ± 0.12 mPa·s
mass density (343.15 K): 934.5 ± 1.9 kg/m3
